According to patent US5475015A, “Benzimidazole derivatives, their preparation and pharmaceutical use” (NeuroSearch A/S, priority 1993, dated 1995):

Key:
[1] = system: calf aortic smooth muscle cells; assay: Whole-cell current clamp recording of membrane potential; type: cell-based; conditions: 10 μM to the bath
Procedure: (§1) All experiments were performed with patch-clamp technique (Hamill et al., Pflugers Arch. 391, 85-100 (1981)). The ion composition of the internal solution was (in mM) 140 KCl, 1 CaCl2, 1 MgCl2, 2 EGTA, 10 HEPES and the external solution contained 140 NaCl, 4 KCl, 2 CaCl2, 1 MgCl2 and 10 HEPES.
The membrane potential of calf aortic smooth muscle cells was determined in whole-cell recordings using current clamp mode (HEKA EPC-9 patch-clamp amplifier). Due to the high-resistance seal and the large size of these cells the recorded membrane potential stayed stable for periods of 30-60 min, although at somewhat depolarized values (-58--22 mV). Administration of for example 1-(5-trifluoromethyl-2-hydroxyphenyl)-5-trifluoromethyl-1,3-dihydro-2H-benzimidazol-2-one (10 μM) to the bath hyperpolarized the cells after a delay of 1-3 min. The average hyperpolarization was -20 mV (SD=-9 mV, n=7), and the effect was largest in the cells being most depolarized prior to administration of the compound.
The equilibrium potential for K+, Cl-, and Na+ in these experiments were -90 mV, 0 mV, and +90 mV, respectively (cf. ion composition above). Thus, since potassium is the only ion having a reversal potential more negative than the resting membrane potential the observed hyperpolarization induced by the test compound must be explained through an increased potassium conductance.

[2] = system: BK channel; assay: Single channel experiments, inside-out patches of cerebellar granule cell membrane; type: cell-based; conditions: 3 μM
Procedure: as §1

[3] = system: delayed rectifier K+ channel; assay: Single channel experiments, inside-out patches of cerebellar granule cell membrane: delayed rectifier; type: cell-based; conditions: 3 μM
Procedure: as §1
(§2) In inside-out patches of cerebellar granule cell membrane single BK channels were activated by for example 5-trifluoromethyl1-(5-trifluoromethyl-2-hydroxyphenyl)-1,3-dihydro-2H-benzimidazole-2-one (3 μM). […] No effect was found on the delayed rectifier K+ channel or on the Cl- channels also present in the patches.

[4] = system: Cl- channels; assay: Single channel experiments, inside-out patches of cerebellar granule cell membrane: Cl- channels; type: cell-based; conditions: 3 μM
Procedure: as §1, §2

[5] = system: BK channel; assay: Single channel experiments in cultured bovine aortic smooth muscle cells; type: cell-based; conditions: 3 μM
Procedure: as §1

[6] = system: acetylcholine-contracted guinea-pig ileum; assay: Guinea-pig ileum experiment (relaxation of acetylcholine-contracted ileum)
Procedure: The compound, 5-trifluoromethyl-1-(5-trifluoromethyl-2-hydroxyphenyl)-1,3-dihydro-2H-benzimidazole-2-one, has been studied for its ability to relax acetylcholine-contracted guinea-pig ileum. The smooth muscle cells of the ileum express many BK channels and the model predicts relaxing effects on the gastrointestinal or urogenital tracts. […] The effect of 30 μM compound is reversed by the BK channel blocker TEA+ (1-3 mM), confirming that the relaxing effect is mediated via BK channels.
Method: Ileum from guinea-pigs are isolated and mounted in an isometric contraction chamber. It is bathed in a physiological Krebs solution at 98° F. The ileum is precontracted with increasing concentrations of acetylcholine (0.015-5.0 μM). The contractions are reversed by including the compound in the bathing solution.

[7] = system: Guinea pig trachea; assay: Trachea experiment (vagus nerve stimulated pressure increase)
Description: The compound, 5-trifluoromethyl-1-(5-trifluoromethyl-2-hydroxyphenyl)-1,3-dihydro-2H-benzimidazole-2-one, has been studied in a trachea model in which relaxation predicts anti-asthmatic potential.
Method: Guinea pig trachea is isolated with intact vagus nerve. Tubes are inserted into both ends and ligated tightly so the pressure in the fluid-filled lumen can be monitored. Electrical stimulation of the vagus nerve leads to a contraction and a pressure increase. The difference in electrically-stimulated pressure increase in the absence and presence of compound is measured.

[8] = system: cocaine induced hypermotility; assay: Cocaine motility test; type: in vivo, NMRI mice
Procedure: The compound, 5-trifluoromethyl-1-(5-trifluoromethyl-2-hydroxyphenyl)-1,3-dihydro-2H-benzimidazole-2-one, has been studied in the cocaine motility test. Cocaine induces hypermotility due to an inhibition of dopamine reuptake. The test is recognized as a test predicting anti-psychotic activity.
Method: Two female NMRI mice (20-25 g) are placed in each test box (normal transparent plexiglas cage, w, l, h=21×39×19 cm ) in the test room for at least 16 hours with food and water ad libitum before the test in order for the animals to habituate to the situation. The test compound is administered i.p. 15 min before saline or 25 mg/kg cocaine i.p. to 32 mice (16 boxes) per dose. Food and water are withdrawn, and the motility is measured as the number of interrupted infrared photo-beams (8 per box placed 5 cm apart and 3 cm over the bottom of the cage) in the next 120 min.

## O=c1[nH]c2cc(C(F)(F)F)ccc2n1-c1cc(C(F)(F)F)ccc1O [Example 6, 1-(2-Hydroxy-5-trifluoromethylphenyl)-5-trifluoromethyl-1,3-dihydro-2H-benzimidazol-2-one]
[1]
  delay before hyperpolarization of the cells: 1 to 3 min
[1]; current clamp, SD=-9 mV, n=7
  average hyperpolarization: -20 mV
[2]
  increase of the open probability of the BK channel: several hundred percent
[3]
  effect on the delayed rectifier K+ channel: No effect
[4]
  effect on the Cl- channels: No effect
[5]
  activation of the BK channel: significantly activated
[6]; 30 μM compound, TEA+ 1-3 mM
  effect of BK channel blocker TEA+ on the relaxing effect: reversed
[6]; 3-30 μM
  relaxation of acetylcholine-contracted ileum: relaxes the ileum in a dose-dependent way
[7]; 10 μM compound
  potentiation of the relaxing effect of lemakalim: 10 x
[7]; 10-100 μM
  relaxation of trachea: relaxes trachea in a dose-dependent way
[8]; 30 mg/kg, without cocaine
  effect of compound by itself on motility: weak hyperactivity
[8]; 1-10 mg/kg i.p. 15 min before 25 mg/kg cocaine i.p., mice, motility over 120 min
  antagonism of cocaine induced hypermotility: antagonizes cocaine induced hypermotility
